Molecular target: T1, human CRHR2-alpha (Homo sapiens, UniProt Q13324)
T1 sequence (Q13324 1-411): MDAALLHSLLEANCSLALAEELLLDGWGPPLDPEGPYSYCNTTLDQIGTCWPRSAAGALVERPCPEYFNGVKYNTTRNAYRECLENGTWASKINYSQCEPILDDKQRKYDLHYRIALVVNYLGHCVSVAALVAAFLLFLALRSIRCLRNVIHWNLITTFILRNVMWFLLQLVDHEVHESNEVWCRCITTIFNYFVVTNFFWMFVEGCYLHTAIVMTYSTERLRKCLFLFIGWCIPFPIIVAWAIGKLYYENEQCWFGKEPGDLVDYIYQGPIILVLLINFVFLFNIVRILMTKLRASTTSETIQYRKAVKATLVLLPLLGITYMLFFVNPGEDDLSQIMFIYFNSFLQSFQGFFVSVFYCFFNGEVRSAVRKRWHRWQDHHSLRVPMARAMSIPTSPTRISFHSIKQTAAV
Test: cAMP functional assay for human CRHR2 (LANCE Ultra cAMP, TR-FRET)
Assay type: cell-based
Settings: CHO-K1 cells expressing human CRHR2-alpha, agonist human urocortin2 at EC80, cAMP; read-out: IC50 against CRHR2
Outline: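 Inhibition of agonist-driven cAMP was assessed in recombinant CHO-K1 cells at 25° C, using 30 min compound pretreatment and 30 min stimulation with EC80 human urocortin2 (CRHR2) or CRF (CRHR1). IC50 came from dose-response fitting.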

IC50, < 300 nM:
O=C(N[C@H]1CC[C@H](Cn2c(=O)n(-c3ccc(Cl)cc3Cl)c3ncccc32)CC1)c1cc(Cl)cnc1C(F)F [Example 459, 5-chloro-N-((1r,4r)-4-((3-(2,4-dichlorophenyl)-2-oxo-2,3-dihydro-1H-imidazo[4,5-b]pyridin-1-yl)methyl)cyclo-hexyl)-2-(difluoromethyl) nicotinamide]
O=C(N[C@H]1CC[C@H](Cn2c(=O)n(-c3ccc(N4CCCC4=O)nc3)c3ccccc32)CC1)c1cc(Cl)cnc1C(F)(F)F [Example 641, 5-chloro-N-((1r,4r)-4-((2-oxo-3-(6-(2-oxopyrrolidin-1-yl)pyridin-3-yl)-2,3-dihydro-1H-benzo[d]imidazol-1-yl)methyl)cyclohexyl)-2-(trifluoromethyl) nicotinamide]
Cc1ncc(Cl)cc1C(=O)N[C@H]1CC[C@H](Cn2c(=O)n(-c3cccc(-c4cnn(C)c4)n3)c3ccccc32)CC1 [Example 656, 5-chloro-2-methyl-N-((1r,4r)-4-((3-(6-(1-methyl-1H-pyrazol-4-yl)pyridin-2-yl)-2-oxo-2,3-dihydro-1H-benzo[d]imidazol-1-yl)methyl)cyclohexyl)nicotinamide]
COCCNc1cc(C#N)c(-n2c(=O)n(C[C@H]3CC[C@H](NC(=O)c4cc(Cl)cnc4C)CC3)c3ccccc32)cn1 [Example 310, 5-chloro-N-((1r,4r)-4-((3-(4-cyano-6-((2-methoxyethyl)amino)pyridin-3-yl)-2-oxo-2,3-dihydro-1H-benzo[d]imidazol-1-yl)methyl)cyclohexyl)-2-methylnicotinamide]
O=C(N[C@H]1CC[C@H](Cn2c(=O)n(-c3ccc4nccnc4c3)c3ccccc32)CC1)c1cc(Cl)cnc1C(F)(F)F [Example 407, 5-chloro-N-((1r,4r)-4-((2-oxo-3-(quinoxalin-6-yl)-2,3-dihydro-1H-benzo[d]imidazol-1-yl)methyl)cyclohexyl)-2-(trifluoromethyl)nicotinamide]
Cc1ncc(Cl)cc1C(=O)N[C@H]1CC[C@H](Cn2c(=O)n(-c3ccc4cnccc4c3)c3ccccc32)CC1 [Example 371, 5-chloro-N-((1r,4r)-4-((3-(isoquinolin-6-yl)-2-oxo-2,3-dihydro-1H-benzo[d]imidazol-1-yl)methyl)cyclo-hexyl)-2-methylnicotinamide]
CNc1cc(-n2c(=O)n(C[C@H]3CC[C@H](NC(=O)c4cc(Cl)cnc4C(F)(F)F)CC3)c3ccccc32)ccn1 [Example 665, 5-chloro-N-((1r,4r)-4-((3-(2-(methylamino)pyridin-4-yl)-2-oxo-2,3-dihydro-1H-benzo[d]imidazol-1-yl)methyl)cyclohexyl)-2-(trifluoromethyl)nicotinamide]
C[C@@H](Oc1ccc(-n2c(=O)n(C[C@H]3CC[C@H](NC(=O)c4cc(Cl)cnc4C(F)F)CC3)c3ccccc32)cn1)C(N)=O [Example 504, N-((1R,4r)-4-((3-(6-(((R)-1-amino-1-oxopropan-2-yl)oxy)pyridin-3-yl)-2-oxo-2,3-dihydro-1H-benzo[d]imidazol-1-yl)methyl)cyclohexyl)-5-chloro-2-(difluoromethyl) nicotinamide]
Cc1ncc(Cl)cc1C(=O)N[C@H]1CC[C@H](Cn2c(=O)n(-c3ccc(NC4CC(F)(F)C4)nc3)c3ccccc32)CC1 [Example 108, 5-chloro-N-((1r,4r)-4-((3-(6-((3,3-difluorocyclobutyl)amino)pyridin-3-yl)-2-oxo-2,3-dihydro-1H-benzo[d]imidazol-1-yl)methyl)cyclohexyl)-2-methylnicotinamide]
COc1ccc(-n2c(=O)n(C[C@H]3CC[C@H](NC(=O)c4c5c(nn4C)CCCC5)CC3)c3ccccc32)cn1 [Example 221, N-((1r,4r)-4-((3-(6-methoxy-pyridin-3-yl)-2-oxo-2,3-dihydro-1H-benzo[d]imidazol-1-yl)methyl)cyclohexyl)-2-methyl-4,5,6,7-tetrahydro-2H-indazole-3-carboxamide]
O=C(N[C@H]1CC[C@H](Cn2c(=O)n(-c3cnc4c(ccn4CCO)c3)c3ccccc32)CC1)c1cc(Cl)cnc1C(F)F [Example 666, 5-chloro-2-(difluoromethyl)-N-((1r,4r)-4-((3-(1-(2-hydroxyethyl)-1H-pyrrolo[2,3-b]pyridin-5-yl)-2-oxo-2,3-dihydro-1H-benzo[d]imidazol-1-yl)methyl)cyclohexyl)nicotinamide]
Cc1ncc(Cl)cc1C(=O)N[C@H]1CC[C@H](Cn2c(=O)n(-c3ccc(OCC(F)F)nc3)c3ccccc32)CC1 [Example 35, 5-chloro-N-((1r,4r)-4-((3-(6-(2,2-difluoroethoxy)pyridin-3-yl)-2-oxo-2,3-dihydro-1H-benzo[d]imidazol-1-yl)methyl)cyclohexyl)-2-methylnicotinamide]
CCn1c(=O)oc2cc(-n3c(=O)n(C[C@H]4CC[C@H](NC(=O)c5cc(Cl)cnc5C)CC4)c4ccccc43)cnc21 [Example 277, 5-chloro-N-((1r,4r)-4-((3-(3-ethyl-2-oxo-2,3-dihydro-oxazolo[4,5-b]pyridin-6-yl)-2-oxo-2,3-dihydro-1H-benzo [d]imidazol-1-yl)methyl)cyclohexyl)-2-methylnico-tinamide]
Cc1ncc(Cl)cc1C(=O)N[C@H]1CC[C@H](Cn2c(=O)n(-c3ccc4cccnc4c3)c3ccccc32)CC1 [Example 395, 5-chloro-2-methyl-N-((1r,4r)-4-((2-oxo-3-(quinolin-7-yl)-2,3-dihydro-1H-benzo[d]imidazol-1-yl)methyl)cyclo-hexyl)nicotinamide]
Cc1ncc(Cl)cc1C(=O)N[C@H]1CC[C@H](Cn2c(=O)n(-c3ccc(-c4ccccc4CO)nc3)c3ccccc32)CC1 [Example 90, 5-chloro-N-((1r,4r)-4-((3-(6-(2-(hydroxymethyl)phenyl)pyridin-3-yl)-2-oxo-2,3-dihydro-1H-benzo[d]imidazol-1-yl)methyl)cyclohexyl)-2-methylnicotinamide]
NC(=O)Nc1ccc(-n2c(=O)n(C[C@H]3CC[C@H](NC(=O)c4cc(Cl)cnc4C(F)F)CC3)c3ccccc32)cn1 [Example 658, 5-chloro-2-(difluoromethyl)-N-((1r,4r)-4-((2-oxo-3-(6-ureidopyridin-3-yl)-2,3-dihydro-1H-benzo[d]imidazol-1-yl)methyl)cyclohexyl)nicotinamide]
CNC(=O)c1ccc(-n2c(=O)n(C[C@H]3CC[C@H](NC(=O)c4cc(Cl)cnc4N)CC3)c3ccccc32)cn1 [Example 534, 5-(3-(((1r,4r)-4-(2-amino-5-chloronicotinamido)cyclo-hexyl)methyl)-2-oxo-2,3-dihydro-1H-benzo[d]imidazol-1-yl)-N-methylpicolinamide]
Cc1ncc(Cl)cc1C(=O)N[C@H]1CC[C@H](Cn2c(=O)n(-c3cccc(-n4ccnc4)c3)c3ccccc32)CC1 [Example 539, N-((1r,4r)-4-((3-(3-(1H-imidazol-1-yl)phenyl)-2-oxo-2,3-dihydro-1H-benzo[d]imidazol-1-yl)methyl)cyclohexyl)-5-chloro-2-methylnicotinamide]
Cc1ncc(Cl)cc1C(=O)N[C@H]1CC[C@H](Cn2c(=O)n(Cc3ccccc3)c3ncccc32)CC1 [Example 448, N-((1r,4r)-4-((3-benzyl-2-oxo-2,3-dihydro-1H-imidazo [4,5-b]pyridin-1-yl)methyl)cyclohexyl)-5-chloro-2-methylnicotinamide]
O=C(N[C@H]1CC[C@H](Cn2c(=O)n(-c3ccccc3F)c3ncccc32)CC1)c1cc(Cl)cnc1C(F)F [Example 449, 5-chloro-2-(difluoromethyl)-N-((1r,4r)-4-((3-(2-fluoro-phenyl)-2-oxo-2,3-dihydro-1H-imidazo[4,5-b]pyridin-1-yl)methyl)cyclohexyl) nicotinamide]
O=C(N[C@H]1CC[C@H](Cn2c(=O)n(-c3cnc4[nH]ccc4c3)c3ccccc32)CC1)c1cc(Cl)cnc1C(F)(F)F [Example 424, 5-chloro-N-((1r,4r)-4-((2-oxo-3-(1H-pyrrolo[2,3-b]pyridin-5-yl)-2,3-dihydro-1H-benzo [d]imidazol-1-yl)methyl)cyclo-hexyl)-2-(trifluoromethyl) nicotinamide]
CNC(=O)COc1ccc(-n2c(=O)n(C[C@H]3CC[C@H](NC(=O)c4cc(Cl)cnc4C(F)F)CC3)c3ccccc32)cn1 [Example 500, 5-chloro-2-(difluoromethyl)-N-((1r,4r)-4-((3-(6-(2-(methylamino)-2-oxoethoxy)pyridin-3-yl)-2-oxo-2,3-dihydro-1H-benzo[d]imidazol-1-yl)methyl)cyclohexyl)nicotinamide]
Cc1ccc(-n2c(=O)n(C[C@H]3CC[C@H](NC(=O)c4cc(Cl)cnc4C(F)(F)F)CC3)c3ccccc32)cn1 [Example 265, 5-chloro-N-((1r,4r)-4-((3-(6-methylpyridin-3-yl)-2-oxo-2,3-dihydro-1H-benzo [d]imidazol-1-yl)methyl)cyclohexyl)-2-(trifluoro-methyl)nicotinamide]
